Data set [1] can be described thus: Human pharmacokinetic (PK) crossover study of caffeine versus d9-caffeine; plasma metabolites paraxanthine / paraxanthine-d6. Conditions: for elimination ½ life: estimated, over both dose levels (0.26 and 1.29 mmol caffeine or d9-caffeine), as metabolite in human plasma; for AUC(0-t) / Cmax / Tmax / half-life: human, plasma, plasma metabolite, arithmetic mean, healthy adults. It counts as in vivo. The protocol:
A double-blind, randomized, two-part, two-period crossover study was conducted to evaluate the pharmacokinetics of caffeine versus d9-caffeine (depicted as compound 14 within U.S. Pat. No. 10,582,716, the disclosure of which is incorporated herein by reference) and their respective metabolites at two dose levels in 20 healthy adult volunteers. A single dose of 50 mg (0.26 mmol) or 250 mg (1.29 mmol) of caffeine, or a molar-equivalent dose of d9-caffeine, were administered in aqueous solution with blood samples collected for up to 48 hours post-dose. Plasma concentrations of parent and metabolites were analyzed using validated LC-MS/MS methods. The pharmacokinetic parameters of the primary caffeine metabolite, paraxanthine, and its respective counterpart, paraxanthine-d6, were analyzed and are reported in Table 2. The elimination ½ life of paraxanthine was estimated at 5-8 hours, consistent with published literature. The elimination ½ life of paraxathine-d6 was estimated at >18-22 hours, a […] difference. […] The data from this study supports the administration of paraxanthine-d6 once daily to humans to prevent or treat various diseases and conditions.

The nature of data set [2]: Pharmacokinetic (PK) study in Sprague-Dawley rats, plasma, oral (gavage) dose. Conditions: rat; for AUC(0-t) / Cmax / Tmax: plasma, single oral (gavage) dose, fasted male Sprague Dawley rats, target dose 30 mg/kg (paraxanthine-d6 31 mg/kg, adjusted for MW). It counts as in vivo. As to the method:
Two groups of fasted male Sprague-Dawley rats (12 animals per group) may be administered an oral single dose of paraxanthine in deionized water (Group 1) or paraxanthine-d6 (a compound of Formula (Ia)), in deionized water (Group 2) at a target dose level of […]. Serial blood samples may be collected from three animals per group per timepoint prior to dosing and at 0.25, 0.5, 1, 2, 3 4, 6, 8, 10, 12, and 14-hours post dose. No more than three blood samples may be collected from individual animals with the last sample being a terminal blood draw. Terminal brain samples may be collected from three animals per group at 1, 4, 8, and 14-hours post dose. Blood samples may be collected into tubes containing sodium heparin, and then processed for plasma and stored frozen until bioanalysis. Brain samples may be collected following the terminal blood collection, rinsed with saline, and stored frozen until bioanalysis. Plasma and brain samples may be analyzed for paraxanthine and paraxanthine-d6 (a compound of Formula (Ia)) concentration using a liquid chromatography-tandem mass spectrometry (LC-MS/MS) method. Non-compartmental pharmacokinetic parameter estimates may be calculated from the mean plasma concentration-time data. A pharmacokinetic (PK) study was conducted in Sprague-Dawley rats. Mean pharmacokinetic parameter estimates in plasma for paraxanthine and paraxanthine-d6 (a compound of Formula (Ia)) following an oral dose of paraxanthine or D6-paraxanthine to male Sprague-Dawley rats are reported in Table 1. […] The dose level for paraxanthine-d6 (a compound of Formula (Ia)) was adjusted to account for molecular weight differences between paraxanthine (MW=180.17) and paraxanthine-d6 (MW=186.2).

Setting [3] is: single dose 0.26 mmol caffeine (paraxanthine) or 0.26 mmol d9-caffeine (paraxanthine-d6).
[4] abbreviates: single dose 1.29 mmol caffeine (paraxanthine) or 1.29 mmol d9-caffeine (paraxanthine-d6).

Consider `Cn1c(=O)[nH]c2ncn(C)c2c1=O` [Paraxanthine, paraxanthine], for which the “elimination ½ life” value in data set [1] is 5 to 8 h. Further, in data set [1] (setting [3]), the area under the curve AUC(0-t) (as a rule, exposure summed from dosing to a finite time, without extrapolation to infinity) came to 31.5 µM·h; the Cmax (as a rule, the highest concentration seen after dosing) was found to be 1620 nM; the time to peak (Tmax) (usually the time from dosing to the highest level) was determined as 8.22 h; the half-life (usually the time in which the quantity being followed falls by half) is 7.58 h. Further, in data set [1] (setting [4]), the AUC(0-t) worked out at 122 µM·h, the Cmax worked out at 7170 nM, the time of peak concentration (Tmax) turned out to be 7.5 h and the half-life was 5.74 h. In data set [2], the AUC(0-t) was found to be 170 µg·h/mL, the Cmax is 38900 ng/mL and the Tmax is 0.5 h.
`[2H]C([2H])([2H])n1c(=O)[nH]c2ncn(C([2H])([2H])[2H])c2c1=O` [Paraxanthine-d6, paraxanthine-d6]: the “elimination ½ life” value in data set [1] was 18 to 22 h. For the same compound, in data set [1] (setting [3]), the exposure AUC(0-t) worked out at 110 µM·h, the maximum concentration (Cmax) amounted to 2900 nM, the Tmax turned out to be 21.1 h and the half-life is above 18 h. For the same compound, in data set [1] (setting [4]), the area under the curve AUC(0-t) amounted to 110 µM·h, the peak concentration (Cmax) was 2900 nM, the time of peak concentration (Tmax) amounted to 21.1 h and the half-life was above 22 h. Further, the “elimination ½ life of paraxanthine-d6 compared with paraxanthine” value in data set [2] (in vivo) is recorded as “no difference”. Moreover, in data set [2], the exposure AUC(0-t) stood at 196 µg·h/mL, the peak level (Cmax) was 42400 ng/mL and the Tmax was determined as 0.5 h.

The values are drawn from patent US20230355632A1, “DEUTERATED PARAXANTHINE AND USES THEREOF” (Lennham Pharmaceuticals, Inc., priority 2020, published 2023).
